#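 These data come from cells grown in 96-well plates and exposed to compound for 48 hours at five concentrations. GI50 = concentration required for 50% inhibition of growth.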 Active and inactive are the calls of the source. Rule as the data show it: active = GI50 up to about 1.1 µM and inactive = higher.
# What was measured:
# Experiment in all cases: NCI anticancer screen, dose series, 48 h
# [1] = tested on: K562
# [2] = tested on: HOP-92
# [3] = tested on: OVCAR-4
# [4] = tested on: NCI/ADR-RES
# [5] = tested on: SN12C
# [6] = tested on: MDA-N
# [7] = tested on: SNB-19
# [8] = tested on: MOLT-4
# [9] = tested on: KM12
# [10] = tested on: M14
# [11] = tested on: SK-MEL-28
# [12] = tested on: MDA-MB-435
# [13] = tested on: UACC-257
# [14] = tested on: HCT-15
# [15] = tested on: UO-31
# [16] = tested on: 786-0
# [17] = tested on: SK-OV-3
# [18] = tested on: COLO 205
# [19] = tested on: UACC-62
# [20] = tested on: SK-MEL-2
Compound,GI50 [1],GI50 [2],GI50 [3],GI50 [4],GI50 [5],GI50 [6],GI50 [7],GI50 [8],GI50 [9],GI50 [10],GI50 [11],GI50 [12],GI50 [13],GI50 [14] [µM],GI50 [15],GI50 [16],GI50 [17],GI50 [18],GI50 [19],GI50 [20]
COC(=O)c1ccc(C)cc1C1CN=NC12Cc1cc(C)c(C)cc1C2=O (centres undefined),27.4 µM (inactive),34.2 µM (inactive),> 100 µM (inactive),28.6 µM (inactive),42.4 µM (inactive),27.9 µM (inactive),42.4 µM (inactive),26.7 µM (inactive),30.2 µM (inactive),35.4 µM (inactive),45.7 µM (inactive),24.9 µM (inactive),53.2 µM (inactive),48.1,46.1 µM (inactive),54.7 µM (inactive),,,,
CC(O)(c1ccccc1)c1nccc2ccccc12 (centres undefined),35.8 µM (inactive),22.4 µM (inactive),37.7 µM (inactive),43.7 µM (inactive),> 100 µM (inactive),23.4 µM (inactive),> 100 µM (inactive),41.9 µM (inactive),36.4 µM (inactive),74.5 µM (inactive),> 100 µM (inactive),18.2 µM (inactive),> 100 µM (inactive),53,51.3 µM (inactive),> 100 µM (inactive),96.6 µM (inactive),70.6 µM (inactive),50.6 µM (inactive),
CC12CCC(C(=O)OC1=O)C2(C)C (centres undefined),> 100 µM (inactive),,> 100 µM (inactive),> 100 µM (inactive),> 100 µM (inactive),> 100 µM (inactive),> 100 µM (inactive),> 100 µM (inactive),> 100 µM (inactive),> 100 µM (inactive),> 100 µM (inactive),> 100 µM (inactive),8.81 µM (inactive),> 100,> 100 µM (inactive),> 100 µM (inactive),> 100 µM (inactive),> 100 µM (inactive),> 100 µM (inactive),28.7 µM (inactive)
O=c1[nH][nH]c(=O)n1Cc1ccccc1Cn1c(=O)[nH][nH]c1=O,> 100 µM (inactive),> 100 µM (inactive),,> 100 µM (inactive),> 100 µM (inactive),> 100 µM (inactive),> 100 µM (inactive),> 100 µM (inactive),> 100 µM (inactive),> 100 µM (inactive),> 100 µM (inactive),> 100 µM (inactive),> 100 µM (inactive),> 100,> 100 µM (inactive),> 100 µM (inactive),> 100 µM (inactive),> 100 µM (inactive),> 100 µM (inactive),> 100 µM (inactive)
C=CCOC(=O)CCCCCCCCCCCCCCCOC(=O)C1=C(CCC[C@@H](C)O[Si](C)(C)C(C)(C)C)NC(=O)N2[C@H](CC3(CC/C=C\[C@H](CC)O[Si](C(C)C)(C(C)C)C(C)C)OCCO3)CC[C@H]12,,18.9 µM (inactive),> 100 µM (inactive),> 100 µM (inactive),> 100 µM (inactive),> 100 µM (inactive),> 100 µM (inactive),,> 100 µM (inactive),> 100 µM (inactive),> 100 µM (inactive),> 100 µM (inactive),> 100 µM (inactive),> 100,> 100 µM (inactive),> 100 µM (inactive),> 100 µM (inactive),> 100 µM (inactive),> 100 µM (inactive),> 100 µM (inactive)
O=C(C=P(c1ccccc1)(c1ccccc1)c1ccccc1)c1cccc(-c2cccc([N+](=O)[O-])c2)c1,2.99 µM (inactive),1.32 µM (inactive),2.45 µM (inactive),3.42 µM (inactive),2.97 µM (inactive),2.49 µM (inactive),4.21 µM (inactive),1.68 µM (inactive),3.67 µM (inactive),3.13 µM (inactive),3.1 µM (inactive),2.68 µM (inactive),,3.16,3.11 µM (inactive),4.24 µM (inactive),2.86 µM (inactive),1.53 µM (inactive),1.72 µM (inactive),
CC(=O)C(=C(c1ccccc1)c1ccccc1)c1ccccc1,62.7 µM (inactive),> 100 µM (inactive),70 µM (inactive),> 100 µM (inactive),> 100 µM (inactive),> 100 µM (inactive),> 100 µM (inactive),87.5 µM (inactive),> 100 µM (inactive),> 100 µM (inactive),> 100 µM (inactive),> 100 µM (inactive),> 100 µM (inactive),86.7,> 100 µM (inactive),> 100 µM (inactive),> 100 µM (inactive),> 100 µM (inactive),> 100 µM (inactive),
CC1(C)CC(=O)c2c(nc3c(ccc4ccccc43)c2-c2ccc(NC(=O)CCC(=O)Nc3ccc(-c4c5c(nc6c4ccc4ccccc46)CC(C)(C)CC5=O)cc3)cc2)C1,> 100 µM (inactive),> 100 µM (inactive),,> 100 µM (inactive),> 100 µM (inactive),> 100 µM (inactive),> 100 µM (inactive),> 100 µM (inactive),> 100 µM (inactive),> 100 µM (inactive),> 100 µM (inactive),> 100 µM (inactive),> 100 µM (inactive),> 100,> 100 µM (inactive),> 100 µM (inactive),> 100 µM (inactive),> 100 µM (inactive),> 100 µM (inactive),> 100 µM (inactive)
Nc1nc(NNc2ccc(Cl)c(Cl)c2)cc(=O)[nH]1,18.9 µM (inactive),21.9 µM (inactive),52 µM (inactive),47.5 µM (inactive),38.1 µM (inactive),35.5 µM (inactive),72.6 µM (inactive),19.4 µM (inactive),30.8 µM (inactive),34.2 µM (inactive),52.1 µM (inactive),25.4 µM (inactive),43.2 µM (inactive),19.7,29.9 µM (inactive),21.6 µM (inactive),,16.6 µM (inactive),,
O=c1[nH]c(=O)n(COCc2ccccc2)cc1Nc1ccc(Br)cc1,> 100 µM (inactive),> 100 µM (inactive),> 100 µM (inactive),> 100 µM (inactive),> 100 µM (inactive),> 100 µM (inactive),> 100 µM (inactive),> 100 µM (inactive),> 100 µM (inactive),> 100 µM (inactive),> 100 µM (inactive),> 100 µM (inactive),> 100 µM (inactive),> 100,> 100 µM (inactive),> 100 µM (inactive),,> 100 µM (inactive),> 100 µM (inactive),
C=CCn1c(-c2ccc([N+](=O)[O-])cc2)cs/c1=N\C(P(=O)(O)O)P(=O)(O)O,> 100 µM (inactive),> 100 µM (inactive),,> 100 µM (inactive),,> 100 µM (inactive),> 100 µM (inactive),> 100 µM (inactive),> 100 µM (inactive),> 100 µM (inactive),> 100 µM (inactive),> 100 µM (inactive),> 100 µM (inactive),> 100,> 100 µM (inactive),> 100 µM (inactive),> 100 µM (inactive),> 100 µM (inactive),> 100 µM (inactive),
Fc1cccc2nc(-c3ccccc3)cc(OCc3ccccc3)c12,> 100 µM (inactive),,> 100 µM (inactive),> 100 µM (inactive),> 100 µM (inactive),> 100 µM (inactive),> 100 µM (inactive),> 100 µM (inactive),> 100 µM (inactive),> 100 µM (inactive),> 100 µM (inactive),> 100 µM (inactive),> 100 µM (inactive),> 100,> 100 µM (inactive),> 100 µM (inactive),> 100 µM (inactive),> 100 µM (inactive),> 100 µM (inactive),> 100 µM (inactive)
N#CC12CC(C=O)=C(N)C1(C#N)CC(C=O)=C2N (centres undefined),45.9 µM (inactive),32.5 µM (inactive),,> 100 µM (inactive),74.6 µM (inactive),32.4 µM (inactive),52.8 µM (inactive),50.8 µM (inactive),88.9 µM (inactive),35.9 µM (inactive),38.5 µM (inactive),36.1 µM (inactive),32.3 µM (inactive),8.34,70.1 µM (inactive),> 100 µM (inactive),> 100 µM (inactive),> 100 µM (inactive),36.2 µM (inactive),24.1 µM (inactive)
Cc1cc2cc3c(cc2c(-c2ccc(N)cc2)n1)OCO3,23.1 µM (inactive),13.9 µM (inactive),,72.9 µM (inactive),39.4 µM (inactive),23.3 µM (inactive),> 100 µM (inactive),13.8 µM (inactive),38.9 µM (inactive),81.8 µM (inactive),,76.6 µM (inactive),> 100 µM (inactive),53,29.2 µM (inactive),25.6 µM (inactive),> 100 µM (inactive),26.8 µM (inactive),30.8 µM (inactive),82.8 µM (inactive)
COc1cc(O)c2c(=O)c(OC)c(-c3ccc(OC)c(O)c3)oc2c1 [AYANIN],60.5 µM (inactive),,22.1 µM (inactive),> 100 µM (inactive),61.9 µM (inactive),73.1 µM (inactive),> 100 µM (inactive),42.7 µM (inactive),35.7 µM (inactive),52.2 µM (inactive),> 100 µM (inactive),34.7 µM (inactive),85.7 µM (inactive),14.3,28.9 µM (inactive),12.5 µM (inactive),35.7 µM (inactive),76.9 µM (inactive),23.5 µM (inactive),> 100 µM (inactive)

# — ChEMBL document CHEMBL1201862, “PubChem BioAssay data set” (2004)
